# Measured values published in patent US8367328B2, “Method for synthesizing DNA” (Takara Bio Inc., priority 1998, dated 2013).
# Target: T1, Pfu DNA Polymerase II (Pyrococcus furiosus, UniProt P81409+P81412)
# T1 construct: made in house; host or cells: Escherichia coli JM109/pFU1001 (FERM BP-5579)
# T1 sequence (P81409 1-1263): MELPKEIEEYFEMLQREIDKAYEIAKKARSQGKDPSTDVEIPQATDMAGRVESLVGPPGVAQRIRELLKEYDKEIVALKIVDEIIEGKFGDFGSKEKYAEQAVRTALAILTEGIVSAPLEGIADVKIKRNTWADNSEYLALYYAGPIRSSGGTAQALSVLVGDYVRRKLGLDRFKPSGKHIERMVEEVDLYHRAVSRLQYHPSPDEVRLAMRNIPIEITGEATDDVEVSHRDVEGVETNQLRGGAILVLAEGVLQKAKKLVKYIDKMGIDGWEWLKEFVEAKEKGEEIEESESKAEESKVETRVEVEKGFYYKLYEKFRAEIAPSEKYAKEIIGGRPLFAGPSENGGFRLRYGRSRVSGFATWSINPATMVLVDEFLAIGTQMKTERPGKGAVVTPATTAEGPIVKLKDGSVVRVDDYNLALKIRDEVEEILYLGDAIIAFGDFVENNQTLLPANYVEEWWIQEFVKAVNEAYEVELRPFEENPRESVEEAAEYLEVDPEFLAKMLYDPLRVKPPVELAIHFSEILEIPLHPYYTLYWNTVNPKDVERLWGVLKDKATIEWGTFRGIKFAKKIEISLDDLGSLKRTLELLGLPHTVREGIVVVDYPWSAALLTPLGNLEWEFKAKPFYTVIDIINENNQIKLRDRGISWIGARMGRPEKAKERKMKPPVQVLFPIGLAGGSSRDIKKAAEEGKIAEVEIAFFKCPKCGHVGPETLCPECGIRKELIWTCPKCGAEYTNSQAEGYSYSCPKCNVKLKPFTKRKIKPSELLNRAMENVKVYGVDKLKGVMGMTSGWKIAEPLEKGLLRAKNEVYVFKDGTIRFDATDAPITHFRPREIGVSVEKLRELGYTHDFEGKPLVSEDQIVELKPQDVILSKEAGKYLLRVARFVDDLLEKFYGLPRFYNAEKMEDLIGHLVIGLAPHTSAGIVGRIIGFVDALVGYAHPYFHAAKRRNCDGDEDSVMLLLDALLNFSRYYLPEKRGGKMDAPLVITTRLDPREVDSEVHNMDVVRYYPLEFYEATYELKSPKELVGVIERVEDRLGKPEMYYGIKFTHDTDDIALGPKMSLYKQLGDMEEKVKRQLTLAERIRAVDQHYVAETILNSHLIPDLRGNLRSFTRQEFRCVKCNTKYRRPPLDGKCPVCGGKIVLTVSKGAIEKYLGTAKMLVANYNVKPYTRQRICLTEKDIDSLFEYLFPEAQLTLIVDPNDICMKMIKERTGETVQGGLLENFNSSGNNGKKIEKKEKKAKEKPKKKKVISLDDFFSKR
# T1 sequence (P81412 1-613): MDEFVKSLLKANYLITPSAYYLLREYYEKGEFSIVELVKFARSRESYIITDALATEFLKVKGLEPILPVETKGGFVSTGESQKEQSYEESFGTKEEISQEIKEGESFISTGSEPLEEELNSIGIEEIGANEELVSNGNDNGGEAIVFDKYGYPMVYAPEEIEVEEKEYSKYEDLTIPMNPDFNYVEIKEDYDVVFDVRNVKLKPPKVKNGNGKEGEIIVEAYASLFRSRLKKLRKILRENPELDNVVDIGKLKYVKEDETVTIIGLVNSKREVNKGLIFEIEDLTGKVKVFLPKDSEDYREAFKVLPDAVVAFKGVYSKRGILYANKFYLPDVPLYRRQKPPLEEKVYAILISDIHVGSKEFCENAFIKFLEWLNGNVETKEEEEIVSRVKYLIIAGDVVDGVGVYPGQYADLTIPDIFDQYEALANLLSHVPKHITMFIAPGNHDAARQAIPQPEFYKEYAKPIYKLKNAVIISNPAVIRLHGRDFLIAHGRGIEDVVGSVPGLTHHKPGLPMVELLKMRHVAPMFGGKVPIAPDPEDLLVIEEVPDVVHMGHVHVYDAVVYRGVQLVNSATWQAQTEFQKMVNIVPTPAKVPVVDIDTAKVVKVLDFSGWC
# Assay: PCR with Pfu DNA Polymerase II in the presence of acidic substances (λDNA template)
# Format: biochemical
# Conditions: 1 kb fragment, 500 pg λDNA, primers λ1/λ3, 30 cycles 98°C 5 s–66°C 15 s
# Procedure: A reaction mixture comprising λDNA as a template, primers λ1 and λ3 as a primer pair, and Pfu DNA Polymerase II as DNA polymerase was prepared, and PCR was carried out. The composition of the reaction mixture is as follows.
# 10 mM Tris-hydrochloric acid (pH 9.2), 75 mM potassium chloride, 6 mM magnesium chloride, 0.4 mM each of dATP, dCTP, dGTP and dTTP, 0.01% BSA, 1.25 U of Pfu DNA Polymerase II, 500 pg of λDNA, and 5 pmol each of primers λ1 and λ3 (a final volume being 25 μl). […]
# Using the sulfated-fucose-containing Polysaccharide-F obtained in Example 6 described above, dextran sulfate powder (manufactured by Onco), or sodium alginate (100 to 150 centipoises, manufactured by Wako Pure Chemicals), the effects of these acidic substances on the activity of Pfu DNA Polymerase II were examined. A reaction mixture comprising λDNA as a template, primers λ1 and λ2 as a primer pair, and Pfu DNA Polymerase II as DNA polymerase was prepared, and PCR was carried out. The composition of the reaction mixture is as follows.
# (§1) 10 mM Tris-hydrochloric acid, pH 9.2, 75 mM potassium chloride, 6 mM magnesium chloride, 0.4 mM each of dATP, dCTP, dGTP and dTTP, 0.01% BSA, 1.25 U of Pfu DNA Polymerase II, 100 pg of λDNA, and 5 pmol each of primers λ1 and λ2 (a final volume being 25 μl). Further, 10 ng of the sulfated-fucose-containing polysaccharide-F, 10 ng of dextran sulfate powder, or 1 μg of sodium alginate was respectively added to the above reaction mixture.
# (§2) The reaction in 25 cycles was carried out for each of these reaction mixtures, wherein one cycle of reaction comprises a process consisting of 98° C., 5 seconds—66° C., 15 seconds. Thereafter, 5 μl of the resulting reaction mixture was subjected to electrophoresis on 1% agarose gel containing ethidium bromide in an amount of 0.00005%, whereby an amplified fragment was confirmed.
# Further, studies were conducted on the effects of the sulfated-fucose-containing polysaccharide-F obtained in Example 6 described above, the sulfated-fucose-containing polysaccharide-U obtained in Example 7 described above, or sodium polyglutamate (manufactured by Sigma) as an acidic substance. A reaction mixture for PCR was prepared in the same manner as described above except for changing the amount of template λDNA to 500 pg and the primer pairs to primers λ1 and λ3. Five nanograms of the sulfated-fucose-containing polysaccharide-F, 5 ng, 10 ng, 20 ng or 30 ng each of the sulfated-fucose-containing polysaccharide-U, or 250 ng, 500 ng, 750 ng or 1000 ng each of sodium polyglutamate was respectively added to the above reaction mixture.
# as §2, with “reaction” for “reaction in 25 cycles”, “in 30 cycles,” for “for each of these reaction mixtures,”, “After the termination of the reaction,” for “Thereafter,”
# Using the sulfated-fucose-containing polysaccharide-F obtained in Example 6 described above, the effects on the activity of Pfu DNA Polymerase II were examined. A reaction mixture comprising λDNA as a template, primers λ1 and λ2 as a primer pair, and Pfu DNA Polymerase II as DNA polymerase was prepared, and PCR was carried out. The composition of the reaction mixture is as follows.
# as §1, with “500” for “100”, “polysaccharide-F” for “polysaccharide-F, 10 ng of dextran sulfate powder, or 1 μg of sodium alginate”
# The reaction in 30 cycles was carried out for each of these reaction mixtures, wherein one cycle of reaction comprises a process consisting of 98° C., 5 seconds—66° C., 15 seconds. […]
substance,measurement,setting,value
sodium polyglutamate,Amplification Results,amount added 250 ng,+ (Amplification being observed)
same,Amplification Results,amount added 500 ng,+ (Amplification being observed)
same,Amplification Results,amount added 750 ng,++ (Intensive amplification being observed)
same,Amplification Results,amount added 1000 ng,+ (Amplification being observed)
